Tests used:
[1] = tested on: 786-0; test: Growth inhibition of human 786-0 cells at 10 uM incubated for 48 hrs by sulforhodamine B assay relative to control; type: functional; settings: 786-0, 48 h, read-out: GI
[2] = tested on: NCI-H322M; test: Growth inhibition of human NCI-H322M cells at 10 uM incubated for 48 hrs by sulforhodamine B assay relative to control; type: functional; settings: read-out: GI
[3] = tested on: MDA-MB-435; test: Growth inhibition of human MDA-MB-435 cells at 10 uM incubated for 48 hrs by sulforhodamine B assay relative to control; type: functional; settings: MDA-MB-435, 48 h, read-out: GI
[4] = tested on: NCI/ADR-RES; test: Growth inhibition of human NCI/ADR-RES cells at 10 uM incubated for 48 hrs by sulforhodamine B assay relative to control; type: functional; settings: read-out: GI
[5] = tested on: SNB-75; test: Growth inhibition of human SNB75 cells at 10 uM incubated for 48 hrs by sulforhodamine B assay relative to control; type: functional; settings: SNB-75, 48 h, read-out: GI
[6] = tested on: HT-29; test: Antiproliferative activity against human HT-29 cells after 48 hrs by propidium iodide staining-based fluorometric analysis; type: functional, cell-based; settings: HT-29, 48 h
[7] = tested on: KM12; test: Growth inhibition of human KM12 cells at 10 uM incubated for 48 hrs by sulforhodamine B assay relative to control; type: functional; settings: KM12, 48 h, read-out: GI
[8] = tested on: HT-29; test: Growth inhibition of human HT-29 cells at 10 uM incubated for 48 hrs by sulforhodamine B assay relative to control; type: functional; settings: HT-29, 48 h, read-out: GI
[9] = tested on: SF-539; test: Growth inhibition of human SF539 cells at 10 uM incubated for 48 hrs by sulforhodamine B assay relative to control; type: functional; settings: SF-539, 48 h, read-out: GI
[10] = tested on: SF-295; test: Growth inhibition of human SF295 cells at 10 uM incubated for 48 hrs by sulforhodamine B assay relative to control; type: functional; settings: SF-295, 48 h, read-out: GI
[11] = tested on: SNB-19; test: Growth inhibition of human SNB19 cells at 10 uM incubated for 48 hrs by sulforhodamine B assay relative to control; type: functional; settings: SNB-19, 48 h, read-out: GI
[12] = tested on: PANC-1; test: Antiproliferative activity against human PANC1 cells after 48 hrs by propidium iodide staining-based fluorometric analysis; type: functional, cell-based; settings: PANC-1, 48 h
[13] = tested on: OVCAR-3; test: Growth inhibition of human OVCAR3 cells at 10 uM incubated for 48 hrs by sulforhodamine B assay relative to control; type: functional; settings: OVCAR-3, 48 h, read-out: GI
[14] = tested on: NCI-H23; test: Growth inhibition of human NCI-H23 cells at 10 uM incubated for 48 hrs by sulforhodamine B assay relative to control; type: functional; settings: NCI-H23, 48 h, read-out: GI
[15] = tested on: MDA-MB-468; test: Growth inhibition of human MDA-MB-468 cells at 10 uM incubated for 48 hrs by sulforhodamine B assay relative to control; type: functional; settings: MDA-MB-468, 48 h, read-out: GI
[16] = tested on: T47D; test: Growth inhibition of human T47D cells at 10 uM incubated for 48 hrs by sulforhodamine B assay relative to control; type: functional; settings: read-out: GI
[17] = tested on: HCT-116; test: Growth inhibition of human HCT116 cells at 10 uM incubated for 48 hrs by sulforhodamine B assay relative to control; type: functional; settings: HCT-116, 48 h, read-out: GI
[18] = tested on: SF-268; test: Growth inhibition of human SF268 cells at 10 uM incubated for 48 hrs by sulforhodamine B assay relative to control; type: functional; settings: SF-268, 48 h, read-out: GI
[19] = tested on: EKVX; test: Growth inhibition of human EKVX cells at 10 uM incubated for 48 hrs by sulforhodamine B assay relative to control; type: functional; settings: read-out: GI
[20] = tested on: M14; test: Growth inhibition of human M14 cells at 10 uM incubated for 48 hrs by sulforhodamine B assay relative to control; type: functional; settings: M14, 48 h, read-out: GI
[21] = tested on: RXF 393; test: Growth inhibition of human RXF393 cells at 10 uM incubated for 48 hrs by sulforhodamine B assay relative to control; type: functional; settings: RXF 393, 48 h, read-out: GI
[22] = tested on: OVCAR-4; test: Growth inhibition of human OVCAR4 cells at 10 uM incubated for 48 hrs by sulforhodamine B assay relative to control; type: functional; settings: OVCAR-4, 48 h, read-out: GI
[23] = tested on: HOP-62; test: Growth inhibition of human HOP62 cells at 10 uM incubated for 48 hrs by sulforhodamine B assay relative to control; type: functional; settings: HOP-62, 48 h, read-out: GI

In the case of `Clc1ccc(-c2cn3nc(-c4ccccc4)nc3s2)cc1`, the inhibition of growth at 10 µM [1] is reported as 53%, the inhibition of growth at 10 µM [2] is reported as 20% and the inhibition of growth at 10 µM [3] is reported as 11%. It also gave an inhibition of growth at 10 µM [4] of 34%, an inhibition of growth at 10 µM [5] of 36% and an IC50 [6] of 5.9 µM. It also gave an inhibition of growth at 10 µM [7] of 30%, an inhibition of growth at 10 µM [8] of 26% and an inhibition of growth at 10 µM [9] of 21%. The inhibition of growth at 10 µM [10] was 21%, the inhibition of growth at 10 µM [11] was 57% and the IC50 [12] was 5.2 µM. It also gave an inhibition of growth at 10 µM [13] of 24%, an inhibition of growth at 10 µM [14] of 33% and an inhibition of growth at 10 µM [15] of 57%. For the same compound, the inhibition of growth at 10 µM [16] was 74%, the inhibition of growth at 10 µM [17] was 41% and the inhibition of growth at 10 µM [18] was 20%. It also gave an inhibition of growth at 10 µM [19] of 28%, an inhibition of growth at 10 µM [20] of 15% and an inhibition of growth at 10 µM [21] of 39%. The inhibition of growth at 10 µM [22] was 60% and the inhibition of growth at 10 µM [23] was 40%.
